Assay results as given in US20240365782A1, “USE OF 2-AMINO-3-METHYLHEXANOIC ACID IN PROMOTING PLANT GROWTH AND INCREASING YIELD” (NANJING AGRICULTURAL UNIVERSITY, priority 2021, published 2024).

Legend:
tomato seedlings = test: Stem and leaf treatment: growth of tomato seedlings; format: in vivo
Protocol: (§1) In 2021, an experiment was conducted in a Changshanxiang Mingyang family farm (standard greenhouse nursery base) in Zhangjiagang city, Jiangsu province. A strawberry variety to be tested was Hongyan, a tomato variety was Qianxi, and a hot pepper variety was Sujiao No. 5. 2-amino-3-methylhexanoic acid was taken, dissolved with distilled water, and diluted with the distilled water to obtain a solution of 100 nM (14.5 μg/L), a blank control was additionally set, and 0.02% Tween 20 as a surfactant and 14-hydroxylated brassinosteroid (Sichuan New Sun company) with the concentration of 37.5 μg/L as a control agent were added at the same time. Each treatment was repeated three times, the plot area was 20 m^2, and the liquid injection volume per plot was 1 L. The treatment method was foliage spray, an investigation was conducted on day 9 after the application, and the results were shown in Tables 3-5 and FIG. 3-FIG. 5.

Pseudomonas aeruginosa = settings: cited from earlier work
Escherichia coli K-12 = settings: cited from earlier work
cucumber seedlings = test: Hydroponic treatment: rooting of radicle-removed cucumber seedlings; format: in vivo; settings: for Lateral root number / Root length: cucumber seedlings, 6 days
Description: To further investigate a promoting effect of 2-amino-3-methylhexanoic acid on growth of plant roots, a model system for studying root generation, a radicle-removed cucumber seedling system, was selected. Four layers of wet gauze were spread on a bottom part of a seedling box, and healthy, full and uniform cucumber seeds (variety “Chuxiaqiuguan”, Ningyang County Luming Seed Co., Ltd., Shandong Province) were picked, washed with distilled water, uniformly spread on the gauze, and then covered with four layers of the wet gauze for keeping in a dark place. After kept in a dark place in a 25° C. culture room for 24 hours, the germinated cucumber seeds were taken out and buried in a position 1 cm below the soil, a plurality of plants with consistent growth vigor and completely unfolded two cotyledons were taken after 3 days, the roots were washed with the distilled water, the radicles were cut off, and the plants were fixed with sponge strips and placed in a centrifuge tube box. 400 mL of a 2-amino-3-methylhexanoic acid aqueous solution at concentrations of 0, 10, 100, and 1,000 nM, respectively was added to each box. The hydroponic plants were placed in the 25° C. culture room. After 6 days of light culture, the plants were taken out and the root length and number of newly generated roots were measured and recorded.

P. fluorescens = settings: cited from earlier work
S. marcescens = settings: cited from earlier work
rice seedlings = test: Soaking seeds: effect on growth of rice seedlings; format: in vivo; settings: for Chlorophyll content: rice leaves; for Chlorophyll content improved compared with the blank control / Plant height improved compared with the blank control / Root fresh weight / Root fresh weight improved compared with the blank control / Root length / Root length improved compared with the blank control / Plant height: rice seedlings; for Plant height: 3 leaves and 1 heart stage
Protocol: Rice seeds (variety “Dengliangyou 2108”) were washed clean with distilled water, disinfected with 75% alcohol for 3 minutes, washed with the distilled water for 3 times, and then disinfected with NaClO (5%) for about 10 minutes, taken out, and washed with the distilled water. Residual water on the surfaces of the seeds was absorbed with clean filter paper until the surfaces were dry and clean. 50 g of the healthy, full and uniform seeds were picked and placed in 100-mL conical flasks. 50 mL of a 2-amino-3-methylhexanoic acid aqueous solution with the concentrations of 0 nM, 10 nM, 100 nM and 1,000 nM was added into each bottle respectively, the seeds were soaked for 5 days at room temperature and taken out, 100 rice seeds to be tested with a consistent germination state were respectively selected, uniformly sowed in a rice seedling tray, and covered with sterile nutrient soil, the seedling tray was placed in a culture room at 28° C., and when 3 leaves and 1 heart of the rice seedlings were grown, the plant height, the root length, the root fresh weight and the overground part fresh weight of the rice seedlings were respectively measured.
(§2) 0.1 g of the rice leaves were accurately cut off for measuring the chlorophyll content. The rice leaves were extracted with 10 mL of an acetone ethanol extracting solution (80% acetone: 95% ethanol at a volume ratio of 1:1) for 24 hours in a dark place. A chlorophyll extracting stock solution was diluted by 3 times with the extracting solution as a reference solution, the light density values at wave lengths of 645 nm and 663 nm were measured with a spectrophotometer, and the chlorophyll content was calculated with a modifier formula of an Amnon method.
In the formula, Ch1a, Ch1b and Ch1t are the concentrations (mg/g·FW) of chlorophyll a, chlorophyll b and total chlorophyll, respectively; n is the dilution ratio; v is the volume of the extracting solution (L); m is the mass (g) of the leaves; and A663 and A645 are absorbance values of 663 nm and 645 nm, respectively.

Brevibacterium helvolum = settings: cited from earlier work
A. ureafaciens = settings: cited from earlier work
Achromobacter butyri = settings: cited from earlier work
strawberry seedlings = test: Stem and leaf treatment: growth of strawberry seedlings; format: in vivo
Protocol: as §1

E. coli B = settings: cited from earlier work
Aerobacter aerogenes = settings: cited from earlier work
strawberry plants = test: Stem and leaf treatment: growth and yield of mature strawberry plants (field application); format: in vivo; settings: for Leaf number / Leaf width / Plant height: mature strawberry plants; for Mass of fruits per plant / Number of fruits per plant: strawberries; for Chlorophyll content: strawberry leaves
Protocol: as §2
On Feb. 27, 2021, an experiment was conducted in a greenhouse of a farm of Baitu town, Jurong city, Jiangsu province, and the strawberry variety to be tested was Hongyan. The 2-amino-3-methylhexanoic acid was taken, dissolved with distilled water, and gradiently diluted with the distilled water to obtain solutions of 1,000 nM and 100 nM, a blank control was additionally set, and 0.02% Tween 20 as a surfactant was added at the same time. Each treatment was repeated three times, the plot area was 100 m^2, and the liquid injection volume per plot was 4.5 L. Three times of field application were conducted on February 27, March 3, and Mar. 8, 2021, respectively. The treatment method was foliage spray. The plant height, the leaf number, the leaf width, the number of fruits per plant, and the mass of fruits per plant were investigated on March 8. 0.2 g of strawberry leaves were cut off at the same time for measuring the chlorophyll content.

hot pepper seedlings = test: Stem and leaf treatment: growth of hot pepper seedlings; format: in vivo
Protocol: as §1

Bacillus subtilis = settings: cited from earlier work
[1] = foliage spray, day 9, 2-amino-3-methylhexanoic acid 14.5 μg/L (100 nM), 14-hydroxylated brassinosteroid 37.5 μg/L
[2] = foliage spray, day 9, 2-amino-3-methylhexanoic acid 100 nM, 14-hydroxylated brassinosteroid 37.5 μg/L
[3] = mature strawberry plants, 1,000 nM

CCCC(C)C(N)C(=O)O (stereo not shown) [2-amino-3-methylhexanoic acid]
Plant height improved compared with 14-hydroxylated brassinosteroid 37.5 μg/L (tomato seedlings; 14.5 μg/L): 76% | Plant height improved compared with the blank control (tomato seedlings; 14.5 μg/L): 84% | Root fresh weight improved compared with 14-hydroxylated brassinosteroid 37.5 μg/L (tomato seedlings; 14.5 μg/L): 16% | Root fresh weight improved compared with the blank control (tomato seedlings; 14.5 μg/L): 232% | Root length improved compared with 14-hydroxylated brassinosteroid 37.5 μg/L (tomato seedlings; 14.5 μg/L): 18% | Root length improved compared with the blank control (tomato seedlings; 14.5 μg/L): 38% | Plant height (tomato seedlings; [1]): 20.80 ± 0.21a cm | Root fresh weight (tomato seedlings; [1]): 4.05 ± 0.07a g | Root length (tomato seedlings; [1]): 5.39 ± 0.43a cm | Inhibitory effect (Pseudomonas aeruginosa): slight inhibitory effect | Inhibitory effect (Escherichia coli K-12): remarkable inhibitory effect | Lateral root number (cucumber seedlings; hydroponic 10 nM): 16.00 ± 1.73a piece | Root length (cucumber seedlings; hydroponic 10 nM): 2.04 ± 0.67b cm | Lateral root number (cucumber seedlings; hydroponic 100 nM): 19.33 ± 1.53a piece | Root length (cucumber seedlings; hydroponic 100 nM): 5.36 ± 0.82a cm | Lateral root number (cucumber seedlings; hydroponic 1,000 nM): 14.33 ± 5.13a piece | Root length (cucumber seedlings; hydroponic 1,000 nM): 4.50 ± 1.28a cm | Cucumber root length improved compared with the blank control (cucumber seedlings; hydroponic 10 nM): 33% | Number of root generation improved compared with the blank control (cucumber seedlings; hydroponic 10 nM): 182% | Cucumber root length improved compared with the blank control (cucumber seedlings; hydroponic 100 nM): 199% | Number of root generation (lateral root number) improved compared with the blank control (cucumber seedlings; hydroponic 100 nM): 241% | Cucumber root length improved compared with the blank control (cucumber seedlings; hydroponic 1,000 nM): 154% | Number of root generation improved compared with the blank control (cucumber seedlings; hydroponic 1,000 nM): 153% | Inhibitory effect (P. fluorescens): no inhibitory effect | Inhibitory effect (S. marcescens): no inhibitory effect | Chlorophyll content (rice seedlings; seed soaking 10 nM): 3.60 ± 0.055b mg/g · FW | Chlorophyll content (rice seedlings; seed soaking 100 nM): 3.82 ± 0.079a mg/g · FW | Chlorophyll content (rice seedlings; seed soaking 1,000 nM): 3.63 ± 0.013b mg/g · FW | Chlorophyll content improved compared with the blank control (rice seedlings; seed soaking 10 nM): 31% | Plant height improved compared with the blank control (rice seedlings; seed soaking 10 nM): 9% | Root fresh weight (rice seedlings; seed soaking 10 nM): 0.039 ± 0.002c g | Root fresh weight improved compared with the blank control (rice seedlings; seed soaking 10 nM): 18% | Root length (rice seedlings; seed soaking 10 nM): 8.34 ± 0.53b cm | Root length improved compared with the blank control (rice seedlings; seed soaking 10 nM): 14% | Plant height (rice seedlings; seed soaking 10 nM): 25.24 ± 0.82b cm | Chlorophyll content improved compared with the blank control (rice seedlings; seed soaking 100 nM): 39% | Plant height improved compared with the blank control (rice seedlings; seed soaking 100 nM): 29% | Root fresh weight (rice seedlings; seed soaking 100 nM): 0.069 ± 0.007a g | Root fresh weight improved compared with the blank control (rice seedlings; seed soaking 100 nM): 109% | Root length (rice seedlings; seed soaking 100 nM): 9.30 ± 0.26a cm | Root length improved compared with the blank control (rice seedlings; seed soaking 100 nM): 27% | Plant height (rice seedlings; seed soaking 100 nM): 29.88 ± 0.16a cm | Chlorophyll content improved compared with the blank control (rice seedlings; seed soaking 1,000 nM): 32% | Plant height improved compared with the blank control (rice seedlings; seed soaking 1,000 nM): 13% | Root fresh weight (rice seedlings; seed soaking 1,000 nM): 0.052 ± 0.003b g | Root fresh weight improved compared with the blank control (rice seedlings; seed soaking 1,000 nM): 58% | Root length (rice seedlings; seed soaking 1,000 nM): 8.30 ± 0.17b cm | Root length improved compared with the blank control (rice seedlings; seed soaking 1,000 nM): 14% | Plant height (rice seedlings; seed soaking 1,000 nM): 26.20 ± 0.32b cm | Inhibitory effect (Brevibacterium helvolum): no inhibitory effect | Inhibitory effect (A. ureafaciens): slight inhibitory effect | Inhibitory effect (Achromobacter butyri): slight inhibitory effect | Plant height improved compared with 14-hydroxylated brassinosteroid 37.5 μg/L (strawberry seedlings; 14.5 μg/L): 7% | Plant height improved compared with the blank control (strawberry seedlings; 14.5 μg/L): 31% | Root fresh weight improved compared with 14-hydroxylated brassinosteroid 37.5 μg/L (strawberry seedlings; 14.5 μg/L): 65% | Root fresh weight improved compared with the blank control (strawberry seedlings; 14.5 μg/L): 70% | Root length improved compared with 14-hydroxylated brassinosteroid 37.5 μg/L (strawberry seedlings; 14.5 μg/L): 24% | Root length improved compared with the blank control (strawberry seedlings; 14.5 μg/L): 23% | Plant height (strawberry seedlings; [2]): 7.00 ± 0.37a cm | Root fresh weight (strawberry seedlings; [2]): 8.49 ± 0.12a g | Root length (strawberry seedlings; [2]): 5.79 ± 0.36a cm | Inhibitory effect (E. coli B): slight inhibitory effect | Inhibitory effect (Aerobacter aerogenes): no inhibitory effect | Chlorophyll content improved compared with the blank control (strawberry plants; [3]): 21% | Leaf number improved compared with the blank control (strawberry plants; [3]): 79% | Leaf width improved compared with the blank control (strawberry plants; [3]): 32% | Plant height improved compared with the blank control (strawberry plants; [3]): 49% | Leaf number (strawberry plants; foliage spray 100 nM): 22.44 ± 4.32b leaf | Leaf width (strawberry plants; foliage spray 100 nM): 5.33 ± 0.48b cm | Plant height (strawberry plants; foliage spray 100 nM): 26.50 ± 3.60b cm | Leaf number (strawberry plants; foliage spray 1,000 nM): 26.00 ± 4.76a leaf | Leaf width (strawberry plants; foliage spray 1,000 nM): 6.59 ± 1.07a cm | Plant height (strawberry plants; foliage spray 1,000 nM): 36.60 ± 3.28a cm | Mass of fruits per plant (strawberry plants; foliage spray 100 nM): 29.06 ± 0.76b g | Number of fruits per plant (strawberry plants; foliage spray 100 nM): 8.32 ± 0.47b fruit | Mass of fruits per plant (strawberry plants; foliage spray 1,000 nM): 34.47 ± 0.58a g | Number of fruits per plant (strawberry plants; foliage spray 1,000 nM): 9.72 ± 0.43a fruit | Chlorophyll content (strawberry plants; foliage spray 100 nM): 3.50 ± 0.30ab mg/g · FW | Chlorophyll content (strawberry plants; foliage spray 1,000 nM): 3.74 ± 0.65a mg/g · FW | Mass of fruits per plant improved compared to the blank control (strawberry plants; strawberry plants, 1,000 nM): 44% | Number of fruits per plant improved compared to the blank control (strawberry plants; strawberry plants, 1,000 nM): 39% | Plant height improved compared with 14-hydroxylated brassinosteroid 37.5 μg/L (hot pepper seedlings; 14.5 μg/L): 37% | Plant height improved compared with the blank control (hot pepper seedlings; 14.5 μg/L): 60% | Root fresh weight improved compared with 14-hydroxylated brassinosteroid 37.5 μg/L (hot pepper seedlings; 14.5 μg/L): 35% | Root fresh weight improved compared with the blank control (hot pepper seedlings; 14.5 μg/L): 49% | Root length improved compared with 14-hydroxylated brassinosteroid 37.5 μg/L (hot pepper seedlings; 14.5 μg/L): 7% | Root length improved compared with the blank control (hot pepper seedlings; 14.5 μg/L): 46% | Plant height (hot pepper seedlings; [1]): 9.32 ± 0.32a cm | Root fresh weight (hot pepper seedlings; [1]): 4.67 ± 0.09a g | Root length (hot pepper seedlings; [1]): 4.53 ± 0.33a cm | Inhibitory effect (Bacillus subtilis): remarkable inhibitory effect
